In data set [1] the test system is stickleback. In words: Exploratory test with azidotrimethylsilicane. Type of data set: in vivo. The note with it: relative to other azides.
In a further data set the test system is threespine stickleback. Also noted: species or system Gasterosteus aculeatus. The note with it: in vivo.
Data set [2] in a line: Example 5: survival/recovery of sockeye after exposure to sodium azide, 20-day bioassays. Type of data set: in vivo, Oncorhynchus nerka. The note with it: sockeye salmon, in vivo; exposed for 16 hours or less; end of 20-day bioassays. The text has this: (§1) Stickleback subjected to the same test conditions experienced almost 100% mortality.
For data set [3], the system named is sockeye. Described as above. It counts as in vivo, Oncorhynchus nerka. As to conditions: exposed for 16 hours or less.
Source text: as §1

The subject of a further data set is chinook salmon. In words: Example 4: LC0 of chinook, artesian well water, 96-hour bioassays. It counts as in vivo, O. tschawytscha. As to conditions: for LC0 of chinook: artesian well water, 96-hour. From the text: The desirable fishes tested in bioassays included the sockeye salmon (Oncorhynchus nerka), chinook salmon, (O. tschawytscha) and the steelhead, a sea-run variety of rainbow trout (Salmo gairdneri).

The test system of a further data set is bridgelip sucker. Briefly: Toxicity to bridgelip sucker, 96-hour bioassays. It counts as in vivo, Catastomus columbianus.
For data set [4], the system named is rats. Briefly: Lowest published lethal oral dose in rats (1974 Toxic Substances List). Type of data set: in vivo, rat. The note with it: water treated at 1 mg/l of azide. How it is done:
It would be impossible for a bird or mammal to drink enough water when treated at 1 mg/l of azide for the azide to harm the animal. To drink a lethal dose, an animal would have to drink 46 times its weight in water. Nevertheless safety precautions should be taken when handling the chemical.

Another data set concerns speckled dace. Briefly: Toxicity to speckled dace, 96-hour bioassays. Type of data set: in vivo, Rhinichthys cataractae.
A further data set deals with torrent sculpin. In words: Toxicity to torrent sculpin, 96-hour bioassays. Type of data set: in vivo, Cottus rotheus.
Another data set has as its system redside shiner. In words: Toxicity to redside shiner, 96-hour bioassays. It counts as in vivo, Richardsonius balteatus.
For a further data set, the system named is cutthroat trout. Briefly: Toxicity to cutthroat trout, 96-hour bioassays. Type of data set: in vivo, Salmo clarki.
The test system of data set [5] is rats. As to conditions: cited from earlier work.
Data set [6] deals with freshwater races of rainbow trout. In words: Toxicity to rainbow trout, 96-hour bioassays. Type of data set: in vivo, Salmo gairdneri.
Data set [7] has as its system stickleback. The protocol:
For field applications the concentration of NaN3 or N3 -- would vary with water quality--mainly with regard to dissolved solid and hydrogen ion concentrations. […] For the treatment of rivers and shorelines of lakes the concentrations of azide that would be used would be those that would kill stickleback in 12 to 24 hours.

For data set [8], the system named is sockeye. The note with it: in vivo.
For data set [9], the system named is stickleback. The source holds these as a separate data set.
Source text: For water with different chemistry and for application of different concentrations of the azide the delay time of application of deactivator could vary.
A further data set concerns sockeye salmon. How it is done: Fingerling sockeye salmon in artesian water were exposed to a concentration of 5 mg/l of potassium azide for 24 hours at a temperature of 15 degrees Celsius.
Ten sockeye (length range, 55-93 mm) were assigned to each of four aquaria (load, 2.7 g/l) and concentrations of chemicals were added as indicated in Table 8. The time of mortality was noted.

Data set [10] concerns threespine stickleback and sockeye salmon. As to conditions: increases in temperature. The protocol:
Delineation bioassays determined primarily the LC50 and LC100 of stickleback and the LC0 and LC50 of salmonids.
Stickleback (mean length, 44 mm) and sockeye (mean length, 74 mm) in artesian well water were treated with various concentrations of potassium azide in laboratory facilities for 96 hours at 5, 10 and 15 degrees Celsius to determine approximate selectivity and safety indices.

Where [11] appears, read: up to 5.0 mg/l in artesian well water.

Where two headings read alike, the source gives them in different places.

Take `C[Si](C)(C)N=[N+]=[N-]` [azidotrimethylsilicane]: the “biological activity/potency and selectivity of the azide radical in organic compounds” value in the data set on stickleback [1] is “equally biologically active or potent and equally selective”.

For `[Ca+2].[I-].[I-]` [calcium iodide], in the data set with threespine stickleback, the azide neutralizing effectiveness entry is “neutralized azide more effectively than calcium chloride”; the “toxicity of azide in standing water and duration of its potency” value (“toxicity of azide” below) is “can be controlled”.

Take `[N-]=[N+]=[N-]` [sodium azide]: the survival at 480 h in data set [2] was found to be 100%. In addition, in the data set on sockeye [3], the “recovery of sockeye from ill effects” value was “complete recovered from any ill effects”. For the same compound, the “LC0 of chinook salmon compared with sockeye and steelhead” value with chinook salmon (allowing for the 0.8 differential) is “substantially greater than that of sockeye and steelhead”. For the same compound, the LC0 of chinook in the data set on chinook salmon (5° C.) stood at 10.0 mg/L; in the data set on chinook salmon (10° C.), 8.0 mg/L; with chinook salmon (15° C.), 8.0 mg/L. Besides, the toxicity result with bridgelip sucker (up to 1.5 mg/l in river water), in the data set with bridgelip sucker (setting [11]), in the data set with speckled dace (up to 1.5 mg/l in river water), in the data set with speckled dace (setting [11]), in the data set on torrent sculpin (up to 1.5 mg/l in river water) and in the data set with torrent sculpin (setting [11]) was “not toxic” in each case. The toxicity entry (in the data set on redside shiner (up to 1.5 mg/l in river water); in the data set on redside shiner (setting [11]); with cutthroat trout (up to 1.5 mg/l in river water); in the data set with cutthroat trout (setting [11]); in data set [6] (up to 1.5 mg/l in river water); in [6] (setting [11])) was “not toxic” each time. The “amount of water to drink for a lethal dose” value in the data set with rats [4] is 46 times its weight. The “LDL0, oral (lowest published lethal dose)” value in the data set on rats [5] is on record as 46 mg for 2 kg of rat. Also, the “toxicity to fish in river water as opposed to artesian water” value in the data set with stickleback [7] (allowing for the 0.8 differential between sodium and potassium azide) was “about 5 times”. Further, the LC100 of stickleback in the data set with stickleback [7] (river water, 96-hour bioassays, 15 degrees Celsius) came to 0.34 mg/L. Also, in the data set with sockeye [8], the “mean times of death at about equal equivalents” value was “about equal mean times of death”.

For the compound `[Cl][Sn][Cl]` [stannous chloride], in the data set on threespine stickleback, the “toxicity of azide” value is given as “can be controlled”.

For calcium chloride, the “toxicity of azide” value in the data set on threespine stickleback is listed as “can be controlled”. In addition, in the data set with stickleback [9] (5 mg/l potassium azide, artesian water), the “delay in application of calcium chloride necessary for maximizing the kill of stickleback” value worked out at 2 h. The “death time for stickleback” value with stickleback [9] (calcium chloride and potassium azide added about simultaneously) is reported as “about doubled”. Also, the Survival time in the data set on sockeye salmon (3.5 mg/l calcium chloride (1 equivalent weight) after 24 h at 5 mg/l potassium azide) was 90 h; in the data set on sockeye salmon (7.0 mg/l calcium chloride (2 equivalent weights) after 24 h at 5 mg/l potassium azide), 112 h; with sockeye salmon (14.0 mg/l calcium chloride (4 equivalent weights) after 24 h at 5 mg/l potassium azide), 148 h; in the data set on sockeye salmon ([…] calcium chloride (8 equivalent weights) after 24 h at 5 mg/l potassium azide) it was “Did not die”. Moreover, the “effect on mortality of sockeye exposed to 5 mg/l potassium azide for 24 hours” value in the data set on sockeye salmon (1, 2, 4, and 8 equivalent weights) was “delayed the mortality”. Also, in the data set with sockeye salmon (8 equivalents of calcium chloride), the “survival of all sockeye in the azide” value is “complete survival of all sockeye”.

With potassium azide, the “effect of temperature on toxicity” value in data set [10] is reported as “marked increase in the toxicity”.

(Values after patent publication US4221782A (priority 1978, dated 1980).)
